The structures appear in SMILES notation. Where “and” joins values, the source holds several entries; their conditions need not be identical. Equal values may be shown once. Inconclusive results and toxic doses are left out.

This passage reports T/C results from PubChem BioAssay AID248 (DTP/NCI, 2004).

The test deals with L1210 leukemia ip in BDF1 mice, survival T/C. Nature of the test: NCI In Vivo Anticancer Drug Screen. Data for tumor model L1210 Leukemia (intraperitoneal) in B6D2F1 (BDF1) mice. To be noted: endpoint: mean survival time, higher = longer survival. The method in brief:
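Read-out is survival time, reported as the treated-group measurement over the vehicle-control measurement.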

Where [1] appears, read: dose: 100.0 mg/kg/injection, schedule: Q01DX001 (ip), vehicle: carboxymethylcellulose (CMC).
Where [2] appears, read: dose: 100.0 mg/kg/injection, schedule: Q01DX009 (ip), vehicle: Klucel (hydroxypropylcellulose) (HPC).
The mark [3] stands for this setting: dose: 100.0 mg/kg/injection, schedule: Q04DX003 (ip), vehicle: Klucel (hydroxypropylcellulose) (HPC).
[4] abbreviates: dose: 200.0 mg/kg/injection, schedule: Q01DX001 (ip), vehicle: carboxymethylcellulose (CMC).
[5] abbreviates: dose: 200.0 mg/kg/injection, schedule: Q04DX003 (ip), vehicle: Klucel (hydroxypropylcellulose) (HPC).
The mark [6] stands for this setting: dose: 400.0 mg/kg/injection, schedule: Q01DX001 (ip), vehicle: carboxymethylcellulose (CMC).
Setting [7] is: dose: 400.0 mg/kg/injection, schedule: Q01DX009 (ip), vehicle: Klucel (hydroxypropylcellulose) (HPC).
[8] abbreviates: dose: 400.0 mg/kg/injection, schedule: Q04DX003 (ip), vehicle: Klucel (hydroxypropylcellulose) (HPC).
Where [9] appears, read: dose: 100.0 mg/kg/injection, schedule: Q01DX001 (ip), vehicle: saline.
Setting [10] is: dose: 200.0 mg/kg/injection, schedule: Q01DX001 (ip), vehicle: saline.
Setting [11] is: dose: 400.0 mg/kg/injection, schedule: Q01DX001 (ip), vehicle: saline.
Where [12] appears, read: dose: 200.0 mg/kg/injection, schedule: Q01DX009 (ip), vehicle: Klucel (hydroxypropylcellulose) (HPC).
Where [13] appears, read: dose: 100.0 mg/kg/injection, schedule: Q04DX003 (ip), vehicle: acetone.
Setting [14] is: dose: 200.0 mg/kg/injection, schedule: Q04DX003 (ip), vehicle: acetone.
Where [15] appears, read: dose: 100.0 mg/kg/injection, schedule: Q04DX003 (ip), vehicle: saline with Tween-80.
[16] abbreviates: dose: 200.0 mg/kg/injection, schedule: Q04DX003 (ip), vehicle: saline with Tween-80.
Where [17] appears, read: dose: 50.0 mg/kg/injection, schedule: Q01DX001 (ip), vehicle: carboxymethylcellulose (CMC).

As to `CC(C)c1ncc([N+](=O)[O-])n1C`, the T/C runs as follows: (dose: 25.0 mg/kg/injection, schedule: Q04DX003 (ip), vehicle: Klucel (hydroxypropylcellulose) (HPC)) 97 % of control; (dose: 50.0 mg/kg/injection, schedule: Q04DX003 (ip), vehicle: Klucel (hydroxypropylcellulose) (HPC)) 95 % of control; under setting [1], 103 % of control; under setting [2], 102 % of control; under setting [3], 97 % of control and 114 % of control; under setting [4], 101 % of control. Moreover, the T/C under setting [5] is 104 % of control, the T/C under setting [6] is 101 % of control, the T/C under setting [7] was 91 % of control and the T/C under setting [8] is 106 % of control.

For `CCOC(=O)CNC(=O)OCCN1CCNC1=S`, the T/C is, setting by setting: (dose: 100.0 mg/kg/injection, schedule: Q01DX009 (ip), vehicle: saline with Tween-80) 98 % of control; (dose: 200.0 mg/kg/injection, schedule: Q01DX009 (ip), vehicle: saline with Tween-80) 100 % of control; (dose: 400.0 mg/kg/injection, schedule: Q01DX009 (ip), vehicle: saline with Tween-80) 101 % of control.

Consider `Cc1ccc(-c2nc(C#N)c(C#N)nc2-c2ccc(C)cc2)cc1`, for which the T/C is, setting by setting: under setting [9], 98 % of control; under setting [10], 101 % of control; under setting [11], 101 % of control.

In the case of `CC(C)CCC[C@@H](C)[C@H]1CC[C@H]2[C@@H]3CC=C4C[C@@H](O)CC[C@]4(C)[C@H]3CC[C@]12C`, the T/C under setting [9] is 92 % of control; the T/C under setting [2] is 94 % of control; the T/C under setting [3] is 97 % of control; the T/C under setting [10] was 95 % of control; the T/C under setting [12] is 91 % of control; the T/C under setting [5] is 89 % of control. Besides, the T/C reads like this: under setting [11], 92 % of control; under setting [7], 92 % of control; under setting [8], 94 % of control.

Turning to `N#CCCN(CCC#N)c1ccc(C=O)cc1`, the T/C reads like this: under setting [2], 97 % of control; under setting [3], 111 % of control; under setting [12], 103 % of control; under setting [5], 93 % of control; under setting [7], 96 % of control; under setting [8], 98 % of control.

With `C[N+](C)(C)CCCC#CC[N+]1(C)CCOCC1`, the T/C is 151 % of control (dose: 8.4 mg/kg/injection, schedule: Q01DX009 (ip), vehicle: saline); 197 % of control (dose: 14.0 mg/kg/injection, schedule: Q01DX009 (ip), vehicle: saline); 96 % of control (dose: 39.0 mg/kg/injection, schedule: Q01DX009 (ip), vehicle: saline); 157 % of control (dose: 65.0 mg/kg/injection, schedule: Q07DX009 (ip), vehicle: saline); 190 % of control (dose: 108.0 mg/kg/injection, schedule: Q07DX009 (ip), vehicle: saline); 177 % of control (dose: 180.0 mg/kg/injection, schedule: Q07DX009 (ip), vehicle: saline). Also, the T/C (dose: 300.0 mg/kg/injection, schedule: Q07DX009 (ip), vehicle: saline) is 123 % of control.

For `CC1=COC2CCCCC2O1` (stereo not given) (tested in a mixture with another compound), the T/C is, setting by setting: (dose: 50.0 mg/kg/injection, schedule: Q01DX009 (ip), vehicle: acetone) 92 % of control; (dose: 100.0 mg/kg/injection, schedule: Q01DX009 (ip), vehicle: acetone) 95 % of control; under setting [13], 103 % of control and 94 % of control; under setting [14], 104 % of control and 96 % of control and 100 % of control; (dose: 400.0 mg/kg/injection, schedule: Q04DX003 (ip), vehicle: acetone) 96 % of control and 89 % of control.

Consider `Cc1nc(C(=O)O)cs1`, for which the T/C was 95 % of control (dose: 50.0 mg/kg/injection, schedule: Q01DX009 (ip), vehicle: saline); 90 % of control (dose: 50.0 mg/kg/injection, schedule: Q04DX003 (ip), vehicle: acetone); 98 % of control (dose: 100.0 mg/kg/injection, schedule: Q01DX001 (ip), vehicle: acetone); 92 % of control (dose: 100.0 mg/kg/injection, schedule: Q01DX009 (ip), vehicle: saline); 92 % of control under setting [13]; 102 % of control (dose: 200.0 mg/kg/injection, schedule: Q01DX001 (ip), vehicle: acetone). Also, under setting [14], the T/C was 95 % of control.

Turning to `O=C(Nc1ccccc1C(=O)NC1CCCC1)NC1CCCC1`, the T/C under setting [3] was 89 % of control and the T/C under setting [5] is 94 % of control.

For `CCOC(=O)CC/C(=C/c1cccc2ccccc12)[N+](=O)[O-]`, the T/C is 105 % of control under setting [15] and 94 % of control under setting [16].

For `O=C(Nc1ccc2ccccc2c1)c1ccc(F)cc1`, the T/C runs as follows: under setting [2], 97 % of control; under setting [12], 102 % of control; under setting [7], 94 % of control.

Regarding `Nc1ncnc2nc(N=Nc3ccc(S(N)(=O)=O)cc3)[nH]c12`, the T/C was 108 % of control under setting [3], 102 % of control under setting [5] and 100 % of control under setting [8].

`COc1ccccc1OCCOCCNC1CC2CCC1(C)C2(C)C` (stereo not given): under setting [3], the T/C was 88 % of control.

For the compound `CCCCCOC(=O)Nc1cccc2ccccc12`, the T/C is, setting by setting: (dose: 100.0 mg/kg/injection, schedule: Q04DX002 (ip), vehicle: Klucel (hydroxypropylcellulose) (HPC)) 94 % of control; (dose: 200.0 mg/kg/injection, schedule: Q04DX002 (ip), vehicle: Klucel (hydroxypropylcellulose) (HPC)) 94 % of control; (dose: 400.0 mg/kg/injection, schedule: Q04DX002 (ip), vehicle: Klucel (hydroxypropylcellulose) (HPC)) 98 % of control.

For the compound `O=C(O)C1C(C(=O)O)C(c2ccccc2)C1c1ccccc1` (stereo not given), the T/C is 90 % of control under setting [17], 97 % of control under setting [1], 103 % of control under setting [4] and 90 % of control under setting [6].

`CC1=C(Br)C(=O)C(C)=C(Br)C1=O`: the T/C reads like this: (dose: 25.0 mg/kg/injection, schedule: Q04DX003 (ip), vehicle: other) 95 % of control; (dose: 50.0 mg/kg/injection, schedule: Q04DX003 (ip), vehicle: other) 87 % of control; (dose: 100.0 mg/kg/injection, schedule: Q04DX003 (ip), vehicle: other) 100 % of control.

With `Cc1cc(C)c(O)c(C(C)(C)C)c1`, the T/C is 102 % of control (dose: 50.0 mg/kg/injection, schedule: Q04DX003 (ip), vehicle: saline with Tween-80); 101 % of control under setting [15]; 107 % of control under setting [16].

Turning to `COC(=O)CCC(=O)N1CCOCC1`, the T/C under setting [15] is 88 % of control; the T/C under setting [16] was 90 % of control; the T/C (dose: 400.0 mg/kg/injection, schedule: Q04DX003 (ip), vehicle: saline with Tween-80) is 88 % of control.

`Nc1ccc(OCCCc2c(N)nc(N)nc2N)c(Cl)c1`: the T/C is, setting by setting: under setting [3], 96 % of control; under setting [5], 94 % of control; under setting [8], 97 % of control.

Consider `COc1ccccc1-n1c(O)c(N=Nc2ccc(Cl)cc2)c(=O)n(-c2ccc(Br)cc2)c1=S`, for which the T/C was 89 % of control (dose: 100.0 mg/kg/injection, schedule: Q01DX001 (ip), vehicle: Klucel (hydroxypropylcellulose) (HPC)) and 92 % of control (dose: 200.0 mg/kg/injection, schedule: Q01DX001 (ip), vehicle: Klucel (hydroxypropylcellulose) (HPC)).

Turning to `OC1C2c3ccccc3C(c3ccccc32)C1O` (stereo not given), the T/C runs as follows: (dose: 75.0 mg/kg/injection, schedule: Q01DX001 (ip), vehicle: saline) 107 % of control; (dose: 150.0 mg/kg/injection, schedule: Q01DX001 (ip), vehicle: saline) 93 % of control; (dose: 300.0 mg/kg/injection, schedule: Q01DX001 (ip), vehicle: saline) 99 % of control.

`O=C(/C=C/c1ccc(Cl)cc1)CCN1CCC2CCC(C2)C1` (stereo not given): the T/C is 92 % of control under setting [17] and 95 % of control under setting [1].

As for `CCN(CCCl)Cc1ccc(-c2c3ccccc3cc3c2ccc2ccccc23)cc1`, the T/C runs as follows: (dose: 78.0 mg/kg/injection, schedule: Q01DX001 (ip), vehicle: carboxymethylcellulose (CMC)) 90 % of control; (dose: 118.0 mg/kg/injection, schedule: Q01DX001 (ip), vehicle: carboxymethylcellulose (CMC)) 92 % of control; (dose: 177.0 mg/kg/injection, schedule: Q01DX001 (ip), vehicle: carboxymethylcellulose (CMC)) 95 % of control.
